Results published in patent publication US20160137714A1 (Thrasos Innovation, Inc., priority 2014, published 2016).
Where “and” joins values, the source holds several entries; their conditions need not be identical. Equal values may be shown once. Read-outs that look alike come from different tables or passages of the source. Positions of bridges follow the written chain, without caps; N, C: chain ends. Non-standard residues stand in square brackets, D forms with d. Residues, ends and D or L forms follow the SMILES beside them.

Key:
[1] = Pharmacokinetics of GPR-405 given at 1 mg/kg sc in CD1 mice; assay type: in vivo, mouse
Protocol: The study described herein involved single (mouse) or multiple (rat) blood collections after test article administration. Test articles are given by oral (PO), intravenous (IV), subcutaneous (SC) or intraperitoneal (IP) routes. All animals have a five day acclimatization period before dosing. Body weights are recorded prior to dosing. For mouse PK, 3 animals per group per time point are used (terminal bleed). For rats, multiple blood samplings per animal (adequately spaced in time) are taken. At the end of the study, all animals are euthanized by CO2 and final blood sample was collected via cardiac puncture.
Preparations are performed under a laminar flow hood using clean procedures. The formulations are kept at in a refrigerator set to maintain 4° C. before use. The dose volume for each animal is based on the most recent body weight measurement.
for PO administration, animal has either restricted access to food until the next day (12 h) before dosing or are allowed free access to food (depending on whether the PK will be done on fasted or fed animals). In all cases, animals has access to water ad libidum. PO dosing is done by gavage using a curved gavage needle (with rounded tip). All animals are observed for few seconds after injection to make sure there are no side effects. For IV administration, dosing (mice and rat) is done by the tail vein. Compound administration is done by slow (15-60 sec) bolus or by slow IV infusion (up to 1 h) using a calibrated syringe pump. For subcutaneous (dorsal region) and intraperitoneal injections, dosing is done with the appropriate needle and volume as per IACUC guidelines. GPR-405 was administered once by SC injection to each animal in the test group using a hypodermic needle attached to a syringe. No dose was administered to control animals.
Sampling is done via the tail, jugular or saphenous vein. Typical time for blood collection for PK are Pre, 5, 15, 30 minutes, 1 h, 2 h, 4 h, 8 h, 24 h. For mice, animals are terminated at each collection (cardiac puncture post-euthanasia). For rats, 200 μl are collected at each time point (max 3 time points per rat in 24 h). Plasma harvested from blood is mixed with 8.5% phosphoric acid (2% v/v of plasma). All plasma samples collected are stored in a freezer, set to maintain −80° C. until bioanalysis. At necropsy, tissues, organs and/or biological fluid are collected, as needed, for analysis. Urine collection is done using metabolic cages when required.
A stock solution of the test article is prepared at 250 μg/mL in DMSO. This solution is quantitatively added to blank mouse or rat plasma to generate a calibration curve. The linear range is from 0.25 to 250 ng/mL. A 175 μL aliquot of plasma is removed from each calibrant tube and processed using solid phase extraction (SPE). Study samples are first diluted with blank control mouse or rat plasma, and 175 μL is aliquoted for processing using SPE. An internal standard working solution (ISWS) is added to each calibrant and study sample (GPR-227 at 100 ng/mL in water). Plasma proteins are precipitated with 175 μL of methanol with 0.5% acetic acid (v/v). After centrifugation at 14,800 RPM for 10 minutes, a 300 μL aliquot of supernatant is diluted in water with 4% phosphoric acid (v/v). The entire diluted sample is extracted by SPE using a Waters Oasis HLB 96-well μElution plate. Samples are washed twice using a solution of acidified water (0.1% TFA, v/v) and 15% MeOH in water (v/v). Purified extracts are eluted into a 96-well collection plate using 40 μL of elution solvent. Standards and study samples are injected onto a Thermo Q-exactive LC-MS/MS system. Chromatographic separation is performed using a reversed-phase C18 HPLC column (Waters CSH C18, 50×2.1 mm, 2.5 μm). Analyte and internal standard are detected using the targeted selected ion monitoring (tSIM) scan mode. […]

[2] = Ex-vivo plasma stability; assay type: in vitro ADME, mouse or rat; conditions: fresh plasma 37° C., 1 μM
Protocol: Test article is added to fresh mouse or rat plasma at a final in-vial concentration of 1 μM. The peptide is incubated in a water bath at 37° C. over a time course that included the following points (in minutes): 0, 15, 30, 60, 120, 240, and 1440. After the incubation time is completed, a 50 μL aliquot of plasma is removed and proteins are precipitated using a solution containing internal standard (THR-123 at 150 ng/mL) in methanol with 0.5% acetic acid (v/v). The samples are centrifuged at 13,000 RPM for 5 minutes, and a 100 μL aliquot of supernatant is removed and transferred to a 96-well plate containing 200 μL of reconstitution solution (Water/MeOH/Acetic Acid/TFA, 60/40/0.2/0.05, v/v/v/v). A calibration curve and quality control (QC) samples are prepared in parallel in the same manner as the incubation samples. The calibration range for this assay is from 0.02 to 2.0 μM in rat or mouse plasma. The extracted calibrants, QC, and incubation samples are injected onto an AB SCIEX API 2000 LC-MS/MS system. Chromatographic separation is performed using a reversed-phase C18 HPLC column (Ace-3 C18, 30×2.1 mm, 3 μm). The solvent system consists of Milli-Q water, acetonitrile and formic acid. Analyte and internal standard are detected using the multiple reaction monitoring (MRM) scan mode. Calibration curves are generated by using a weighted (1/concentration) quadratic regression analysis of the peak area ratios (analyte/internal standard) versus the nominal concentration of the calibration standards. The concentration of the analyte in the incubation samples is determined by back-calculating the peak area ratios obtained using the quadratic regression.

[3] = THR-123 i.v. in rodents: half-life and metabolites in plasma and kidney tissue; assay type: in vivo, rat
Text: The main metabolite VII results from a proteolytic cleavage between positions 14 and 15 (VII in FIG. 2). The structure of each metabolite was confirmed by synthesis and analytical characterization.

[4] = mouse, in vivo, 1 mg/kg sc in CD1 mice

**Q.** With `CC(C)C[C@@H]1NC(=O)[C@H](C(C)C)NC(=O)[C@H](CCC(N)=O)NC(=O)[C@H](CO)NC(=O)[C@H](CO)NC(=O)[C@H](CC(N)=O)NC(=O)[C@H](Cc2ccccc2)NC(=O)[C@H](Cc2ccc(O)cc2)NC(=O)[C@H](Cc2ccc(O)cc2)NC(=O)[C@@H](N)CSSC[C@@H](C(=O)N[C@@H](CCCCN)C(=O)N[C@@H](CCCNC(=N)N)C(=O)N[C@H](Cc2ccc(O)cc2)C(=O)N[C@@H](CCCNC(=N)N)C(=O)N[C@@H](CO)C(=O)O)NC1=O` [GPR-405, Cys-Tyr-Tyr-Phe-Asn-Ser-Ser-Gln-Val-Leu-Cys-Lys-Arg-(D)Tyr-Arg-Ser] (H-CYYFNSSQVLCKR[dY]RS-OH; disulfide 1-11) as the compound, how does the “AUMC(0-t)” value ([1]; 1 mg/kg sc in CD1 mice) read?
**A.** The value was 196073 ng*min^2/ml.

**Q.** And the “CL*F” value ([1]; 1 mg/kg sc in CD1 mice)?
**A.** Its value is 3.83 mL/min.

**Q.** What about the “CL/kg*F” value ([1]; 1 mg/kg sc in CD1 mice) of the same compound?
**A.** Its value is 120 mL/min/kg.

**Q.** And the KeI ([1]; 1 mg/kg sc in CD1 mice)?
**A.** Its KeI is 0.04 min⁻¹.

**Q.** What about the Tmax ([1]; 1 mg/kg sc in CD1 mice) of the same compound?
**A.** Its Tmax is 5 min.

**Q.** And the “Vd*F” value ([1]; 1 mg/kg sc in CD1 mice)?
**A.** Its value is 172.28 mL.

**Q.** And the Vss ([1]; 1 mg/kg sc in CD1 mice)?
**A.** Its Vss is 90.22 mL.

**Q.** And the “Terminal T1/2” value ([1]; 1 mg/kg sc in CD1 mice, based on terminal decay rate)?
**A.** Its value is 31.21 min.

**Q.** And the “K′ (terminal decay rate)” value ([1]; 1 mg/kg sc in CD1 mice, log-linear fit of 30, 60, 240 min)?
**A.** The value was 0.022 min⁻¹.

**Q.** And the “clearance compared with renal clearance” value ([1]; 1 mg/kg sc in CD1 mice, mouse GFR approximately 10 ml/min/kg)?
**A.** The value was “about ten times greater than renal clearance”.

**Q.** And the half-life ([1]; mouse, in vivo, sc, 1 mg/kg, 1 mg/kg sc in CD1 mice, based on terminal decay rate, read-out: Terminal T1/2)?
**A.** Its half-life is ~30 min.

**Q.** And the half-life ([1]; mouse, in vivo, sc, 1 mg/kg, 1 mg/kg sc in CD1 mice, read-out: Biological T1/2 (overall half-life))?
**A.** The half-life was ~16 min.

**Q.** And the Tmax ([1]; mouse, in vivo, sc, 1 mg/kg, 1 mg/kg sc in CD1 mice, read-out: Tmax)?
**A.** Its Tmax is < 5 min.

**Q.** And the AUC(0-inf) [1, 4]?
**A.** The AUC(0-inf) was 142 ng·h/mL.

**Q.** And the AUC(0-t) [1, 4]?
**A.** The AUC(0-t) was 142 ng·h/mL.

**Q.** What about the Cmax [1, 4] of the same compound?
**A.** The Cmax was 504 ng/mL.

**Q.** What about the MRT [1, 4] of the same compound?
**A.** The MRT was 23.1 min.

**Q.** What about the bioavailability ([1]; mouse, in vivo, sc, mice, preliminary data) of the same compound?
**A.** Its bioavailability is ~60%.

**Q.** What about the level at 5 min ([1]; mouse, plasma, 1 mg/kg sc, CD1 mice, 5 min, read-out: Mean Concentration) of the same compound?
**A.** The level at 5 min was 504 ng/mL.

**Q.** What about the level at 0.25 h ([1]; mouse, plasma, 1 mg/kg sc, CD1 mice, 15 min, read-out: Mean Concentration) of the same compound?
**A.** Its level at 0.25 h is 117 ng/mL.

**Q.** And the level at 0.5 h ([1]; mouse, plasma, 1 mg/kg sc, CD1 mice, 30 min, read-out: Mean Concentration)?
**A.** The level at 0.5 h was 68.8 ng/mL.

**Q.** And the level at 1 h ([1]; mouse, plasma, 1 mg/kg sc, CD1 mice, 60 min, read-out: Mean Concentration)?
**A.** The level at 1 h was 15.9 ng/mL.

**Q.** And the level at 4 h ([1]; mouse, plasma, 1 mg/kg sc, CD1 mice, 240 min, read-out: Mean Concentration)?
**A.** Its level at 4 h is 0.4 ng/mL.

**Q.** What about the “Final Concentration (individual mouse)” value ([1]; plasma, 1 mg/kg sc, CD1 mice, 5 min, 1 mg/kg) of the same compound?
**A.** The value was 596.4 ng/ml and 411.9 ng/ml and 62.4 (outlier) ng/ml.

**Q.** What about the “Final Concentration (individual mouse)” value ([1]; plasma, 1 mg/kg sc, CD1 mice, 15 min, 1 mg/kg) of the same compound?
**A.** Its value is 114.2 ng/mL and 118.3 ng/mL and 118.4 ng/mL.

**Q.** And the “Final Concentration (individual mouse)” value ([1]; plasma, 1 mg/kg sc, CD1 mice, 30 min, 1 mg/kg)?
**A.** Its value is 49.0 ng/mL and 88.6 ng/mL.

**Q.** What about the “Final Concentration (individual mouse)” value ([1]; plasma, 1 mg/kg sc, CD1 mice, 60 min, 1 mg/kg) of the same compound?
**A.** The value was 23.0 ng/mL and 11.9 ng/mL and 12.8 ng/mL.

**Q.** What about the “Final Concentration (individual mouse)” value ([1]; plasma, 1 mg/kg sc, CD1 mice, 240 min) of the same compound?
**A.** Its value is 0.4 ng/mL.

**Q.** What does the source list for `CC(C)C[C@@H]1NC(=O)[C@H](C(C)C)NC(=O)[C@H](CC(N)=O)NC(=O)[C@H](CO)NC(=O)[C@H](CO)NC(=O)[C@H](CC(=O)O)NC(=O)[C@H](CC(=O)O)NC(=O)[C@H](Cc2ccccc2)NC(=O)[C@H](Cc2ccc(O)cc2)NC(=O)[C@@H](N)CSSC[C@@H](C(=O)N[C@@H](CCCCN)C(=O)N[C@@H](CCCCN)C(=O)N[C@@H](Cc2ccc(O)cc2)C(=O)N[C@@H](CCCNC(=N)N)C(=O)N[C@@H](CO)C(=O)O)NC1=O` [THR-123, Cys-Tyr-Phe-Asp-Asp-Ser-Ser-Asn-Val-Leu-Cys-Lys-Lys-Tyr-Arg-Ser] (H-CYFDDSSNVLCKKYRS-OH; disulfide 1-11)?
**A.** remaining at 1 h ([2]; 60 min, read-out: Percent remaining 60 min): 3.4%; remaining at 2 h ([2]; 120 min, read-out: Percent remaining 120 min): 2.3%; half-life in plasma and kidney tissue ([3]; administered intravenously to rodents, FIG. 1): short half-life; metabolites identified in the kidney ([3]; rat kidney tissue, ten minutes post i.v. administration, FIG. 2): metabolites VI, VII, VIII and IX
